Experimental data taken from patent publication US9796757B2, “Compositions and method for treating thrombosis” (The Board of Trustees of the University of Illinois, priority 2013, dated 2017).
No end group written: not given here. *: point of attachment. Myristoyl = CCCCCCCCCCCCCC(=O)*

What was measured:
lung ECs = experiment: ex vivo isolated buffer-perfused mouse lung vWF secretion (ELISA of perfusate)
Method: Anesthetized GNA12^−/−, GNA12^−/−/EC GNA13^−/−, GNAq^−/−, and GNAq^−/−/EC GNA11^−/− mice were instrumented with a tracheal tube, cannulated via pulmonary artery, and perfused with warmed Krebs buffer at a rate of 1 ml/min for 5 minutes to remove residual blood constituents followed by treatment for 20 minutes with 2 ml recirculating Krebs buffer to assess constitutive vWF secretion. […] Following lung perfusion, lungs were minced and snap-frozen in liquid nitrogen for subsequent determination of whole lung extract vWF levels.
(§1) Mouse samples were collected and vWF level was measured by sandwich ELISA (Lu, et al. (2011) supra). One unit of vWF was defined as the amount present in 1 ml of mouse pooled normal plasma.
To address the role of G protein α subunits in constitutive (basal, spontaneous) vs. PAR-1-mediated vWF secretion from endothelial cells, vWF was measured in the ex vivo isolated buffer-perfused mouse lung (IPML). Lung preparations were used to exclude platelets as a source of vWF and also hepatic stellate cells as contributors of proteases that cleave ultra large vWF strings (Lenting, et al. (2012) supra). Ventilated WT, Gα12^−/−, and EC-Gαq^−/−; Gα11^−/− mouse lungs were cannulated and perfused with warmed recirculating RPMI media via pulmonary artery and left atrial catheters in situ. To assess basal vWF secretion, precleared blood-free lungs were perfused for 15 minutes with […] of 37° C. recirculating RPMI media (approximately the same volume as the normal mouse blood volume). Samples of the recirculating buffer were collected at 5 minute intervals over a period of 30 minutes and vWF (mU/ml perfusate) was measured by ELISA.
To assess the mechanism of thrombin-induced vWF release from ECs via PAR-1 activation, the PAR-1-specific synthetic peptide Thr-Phe-Leu-Leu-Arg (SEQ ID NO:3) was used to stimulate lung ECs. […] The initial slope of the vWF secretion curve was used to estimate the rate of vWF release following addition of Thr-Phe-Leu-Leu-Arg (SEQ ID NO:3), which was approximately 25 mU/mL/min in WT mouse lungs. […] Under these same conditions, basal vWF secretion in the pulmonary circulation of EC-Gαq^−/−; Gα11^−/− lungs was not different from that observed in WT mice, although Thr-Phe-Leu-Leu-Arg (SEQ ID NO:3)-induced vWF release was reduced by approximately 40%. […] The presence of EC WPB vWF in en face descending aorta and paraffin-embedded lung sections was verified by immunostaining and confocal microscopy. WT, Gα12^−/−, and Gα11^−/− tissues stained positive for vWF consistent with there being equivalent vWF synthesis and storage in WPBs in WT, Gα12^−/−, and Gα11^−/− mice.

HUVEC = experiment: vWF immunostaining / WPB quantification by confocal microscopy in HUVEC; assay type: cell-based, human
Method: Endothelial cells cultured on gelatin-coated glass bottom dishes were fixed with 4% paraformaldehyde, permeabilized with 0.1% TRITON X-100, blocked with 5% goat serum for 1 hour, and subsequently incubated with rabbit polyclonal antibody directed against vWF (0.5 μg/ml) or contral IgG overnight at 4° C. Coverslips were washed 3× with phosphate-buffered saline and incubated for 30 minutes at room temperature in the dark with ALEXAFLUOR 555 goat anti-mouse and ALEXAFLUOR 488-labeled goat anti-rabbit secondary antibody. Coverslips were washed with phosphate-buffered saline and embedded in mounting media (VECTASHIELD). Confocal microscopy was performed using a ZEISS LSM 510 Meta microscope (Carl Zeiss MicroImaging, Inc.) equipped with 488 nm and 543 nm excitation lasers and pinhole set to achieve 1 Airy unit.
Weibel-Palade Bodies (WPBs) were identified based on vWF immunofluorescence staining, size (approximately 3 μm long and 0.3 μm wide), and shape (elongated organelles). […] The number of WPBs per cell was counted (n=10-30) and the average fluorescence intensity per WPB/cell determined.
To distinguish whether the inhibitory effect of Gα12 depletion on vWF secretion is due to inhibition of vWF secretion as opposed to impaired vWF production or storage, vWF immunostaining and confocal microscopy of control siRNA and Gα12 siRNA-treated HUVECs was performed in presence or absence of thrombin stimulation.
To elucidate the role of Gα12 in WPBs exocytosis, HUVEC were transfected with constitutively-active GFP-tagged Gα12^Q229L mutant, GFP-tagged Gα12^WT, or GFP alone, and then confocal images of vWF immunostaining were quantified.
The role of Gα12/αSNAP interactions in regulation of vWF secretion was analyzed using a two-step experimental approach. First, a library of Gα12-substitution mutants (Meigs, et al. (2005) J. Biol. Chem. 280(18):18049-18055) was used, in which the primary sequence of Gα12 was replaced with the Asn-Ala-Ala-Ile-Arg-Ser (SEQ ID NO:5; NAAIRS cassette) to assess domain-specific in vitro binding of Myc-tagged Gα12^Q229L with or without ‘NAAIRS’ substitution of N-terminal amino acids 4-9 (ΔN4-9) or 10-15 (ΔN10-15) to GST-αSNAP. […] Secondly, to assess the role of Gα12 interaction with α-SNAP in vWF secretion, a GFP-tagged α-SNAP Binding Domain (aa 10-15) minigene (GFP-SBD) was constructed based on the identified Gα12•GST-αSNAP interaction.

HPAEC = experiment: vWF secretion assay and ELISA in HPAEC; assay type: cell-based, human; details: peptide 1 μM, 1 hour pre-incubation, ELISA (FIG. 2), listed as Myr-SBD peptide
Method: vWF secretion assay was as previously described (Lui-Roberts, et al. (2005) J. Cell Biol. 170:627-636). In brief, 48 hours after transfection, endothelial cells were serum-deprived for 4 hours, washed, and incubated with fresh serum-free medium in presence or absence of 25 nM thrombin, A23187 (a calcium ionophore), or culture medium alone (vehicle control). Cell culture media was collected at various time points after agonist stimulation and centrifuged for 10 minutes at 13,000×g to remove cell debris. Supernatants were assayed for vWF content by ELISA. Cells were lysed to determine total vWF secreted per 10^6 cells. The concentration of vWF was expressed as mIU/ml/10^6 cells by relating the absorbance at 450 nm to a vWF standard curve. […] To prevent potential differences in releasable vWF, the same batch of HUVEC was used for all experiments, and control and siRNA treated cells were assessed at equivalent cell densities.
The role of G protein signaling in basal vs. PAR1-stimulated vWF secretion from confluent, low passage, and serum-deprived HUVECs and HPAECs was subsequently determined. […]
It was determined whether Gα12 interaction with αSNAP plays an important role in both basal and evoked VWF secretion from endothelial cell WPBs in vitro and in vivo. […] The effect of Gα12 and Myr-SBD on vWF secretion was assessed as was mortality associated with CLP/sepsis in rodent models. […]

plasma vWF = plasma vWF after CLP or SHAM surgery in mice; assay type: in vivo; details: 24 hours after SHAM or CLP surgery, i.v. 100 μl of 100 μM (~5 μM) at time of surgery, vs Myr-Scrambled peptide, n=3/group
Method: Mice were anaesthetized by ketamine/xylazine as above and ventilated according to conventional methods. […] Plasma was prepared from citrated blood samples via centrifugation at 3,000×g for 15 minutes at room temperature and stored at −80° C. until vWF measurement by ELISA. The anesthetized mouse was then euthanized for lung tissue collection as described below.
as §1
It was determined whether Gα12 interaction with αSNAP plays an important role in both basal and evoked VWF secretion from endothelial cell WPBs in vitro and in vivo. Myr-SBD peptide (1 μM; 1 hour pre-incubation) blocked both basal VWF secretion and that evoked by thrombin stimulation of HPAEC (FIG. 2). The effect of Gα12 and Myr-SBD on vWF secretion was assessed as was mortality associated with CLP/sepsis in rodent models. […] Importantly, reduced plasma vWF levels (FIG. 3B) were observed 24 hours after SHAM or CLP surgery in mice given 100 μl of 100 μM Myr-SBD (˜5 μM) as compared to mice treated with Myr-Scrambled peptide.

[1] = tail-snip blood loss (primary hemostasis); assay type: in vivo; details: EC-Gα13−/−; Gα12−/− mice; i.v. 2 μg/g BW
Method: Mice were anaesthetized using 100 mg/kg ketamine and 5 mg/kg xylazine. Once unresponsive to tail pinch, 3-5 mm of the end of the tail was removed with a scalpel, the tail was immersed in 0.9% saline solution (37° C.), and time required for bleeding to stop was recorded (n=10 male mice/group, age 8-12 weeks) according to established methods (Lu, et al. (2011) Cell Res. 21:530-545). If no cessation of bleeding occurred after 30 minutes, the tail was cauterized with a cautery pencil and 30 minutes was recorded as the bleeding time. Blood loss during the bleeding time experiments was expressed as the accumulated amount of hemoglobin (Hb) bled into the container with phosphate-buffer saline in which tails were immersed. Hb (mg Hb/mL saline) was analyzed over the period of the experiment, using Hemocue HB201+ (Hemocue; Cypress, Calif.). Mice were allowed to recover in a clean cage. […]
Using megakaryocyte-restricted-Gα12/13 double knockout mice, it has been observed that Gα13-dependent signaling in platelets is important for hemostasis and thrombosis (Moers, et al. (2003) Nat. Med. 9(11):1418-1422). However, the molecular mechanisms and functional significance of endothelial cell Gα12 and Gα13 in primary hemostasis were not assessed. […] Hb accumulation from the cut tail immersed in saline solution was measured every 5 minutes for 15 minutes. […]

Thr-Phe-Leu-Leu-Arg (TFLLR) [Thr-Phe-Leu-Leu-Arg (SEQ ID NO:3)]
reduction of peptide-induced vWF release vs WT (lung ECs; EC-Gαq−/−, Gα11−/− mouse lungs): approximately 40%
rate of vWF secretion (lung ECs; Gα12−/− mouse lungs, 30 μM peptide in recirculating perfusate): 3 mU/mL/min
time to peak vWF level in perfusate (lung ECs; WT mice, 30 μM peptide, remained constant for up to 1 hour): 10 to 15 min
rate of vWF release (initial slope of vWF secretion curve) (lung ECs; WT mouse lungs, 30 μM peptide in recirculating perfusate): approximately 25 mU/mL/min

thrombin
GFP-positive control cells showing reduced vWF positive WPBs (HUVEC; HUVEC transfected with GFP alone, 25 nM thrombin for 15 minutes): 80%
decrease in intracellular vWF staining (HUVEC; control siRNA HUVEC, thirty minutes after thrombin treatment): > 80%

GFP-SBD: GFP-tagged α-SNAP Binding Domain (aa 10-15) minigene expressed in HUVEC (RCLLPA; not fully specified; also: GFP-tagged minigene (fusion))
thrombin-induced WPB exocytosis (HUVEC; GFP-SBD minigene expressed in HUVEC): inhibited
intracellular vWF staining following thrombin stimulation (HUVEC; GFP-SBD-expressing HUVECs, control GFP cells significantly reduced (FIG. 1)): remained unchanged

CCN1C(=O)C=CC1=O [NEM, N-Ethylmaleimide]
vWF secretion (lung ECs; 1 mM added to recirculating lung perfusion system for 1 minute): abolished

Myr-Arg-Cys-Leu-Leu-Pro-Ala (Myristoyl-RCLLPA) [Myr-SBD]
basal VWF secretion (HPAEC): blocks
thrombin-evoked VWF secretion (HPAEC; thrombin stimulation): blocks
plasma vWF levels (plasma vWF): reduced

purified human plasma-derived vWF: purified human plasma-derived von Willebrand factor
hemostasis (tail-snip blood loss) [1]: corrected
